The nature of series [1]: Crystal thickness by scanning electron microscope. It is filed as physicochemical. The following applies: α-type crystal. An excerpt:
In this description, when a crystal is ascertained three-dimensionally using a microscope, the longest axis is referred to as “longitudinal axis”, and an axis perpendicular to the longitudinal axis is referred to as “lateral axis” (FIG. 2). Further, the length in the longitudinal axis direction of a crystal, the major axis of the cross section of the lateral axis, and the minor axis of the cross section of the lateral axis are referred to as “crystal length”, “crystal width”, and “crystal thickness”, respectively (see FIG. 2), and the averages thereof are referred to as “average length”, “average width”, and “average thickness”, respectively.
The crystal thickness can be measured, for example, using a scanning electron microscope [JSM-6510 (manufactured by JEOL Ltd.)] at a measurement magnification of 250 to 1000 times. For example, as for 50 crystals, crystals whose longitudinal axis is perpendicular to the scanning electron microscope field of view are selected, and the thickness of each crystal is measured (FIG. 2, right drawing), and the average thickness T is measured. A sample is fixed to an aluminum sample stand with a carbon double-sided tape.

The nature of series [2]: Loose specific volume (Multi Tester MT-1001T). The following applies: for Difference in specific volume: loose minus dense specific volume; for Loose specific volume: α-type crystal. In kind it is physicochemical. As to the method:
Here, the “loose specific volume” refers to a value which is obtained by dividing a volume occupied by a powder by a mass when the powder is filled in a container and the mass of the powder is measured.
[Measurement Conditions for Loose Specific Volume]
Vibration width: 0.6 to 0.7 mm

The nature of series [3]: Dense specific volume (Multi Tester MT-1001T). It is filed as physicochemical. The following applies: α-type crystal; 200 taps. On the procedure:
Here, the “dense specific volume” refers to a value which is obtained by dividing a volume occupied by a powder by a mass when the powder is filled in a container and the mass of the powder is measured, and thereafter a given impact is applied to the container.
[Measurement Conditions for Dense Specific Volume]

Series [4] is described as follows: Angle of repose (Multi Tester MT-1001T).
The nature of series [5]: Angle of rupture (Multi Tester MT-1001T).
The conditions of series [6]: compared with Comparative Example. From the text:
FIG. 1 illustrates the change in loose specific volume over time when crystals of reduced glutathione obtained in Example 3 and Comparative Example were pulverized. The vertical axis represents the loose specific volume (mL/g), and the horizontal axis represents the pulverization time (min).
The crystal of reduced glutathione of the present invention can be produced by further pulverizing the crystal of reduced glutathione of the present invention obtained by the above-mentioned method. The pulverization of the crystal can be performed, for example, using Osterizer Oster Vintage Blender 16-speed Dual Range (Osterizer OSTER) under the following conditions.
[Conditions for Pulverization of Crystal]
Sample feeding amount: 20 g/feed
The α-type crystals of reduced glutathione obtained in Example 3 and Comparative Example were pulverized, and the change in loose specific volume over time was measured.

As to `N[C@@H](CCC(=O)N[C@@H](CS)C(=O)NCC(=O)O)C(=O)O` [Commercially available product A, reduced glutathione], in series [1], the “Average crystal thickness T” value was 1.9 μm. In series [2], the “Difference in specific volume” value is 2.20 mL/g and the Loose specific volume is listed as 4.69 mL/g. Besides, the Dense specific volume in series [3] came to 2.49 mL/g.
Take `N[C@@H](CCC(=O)N[C@@H](CS)C(=O)NCC(=O)O)C(=O)O` [Commercially available product B, reduced glutathione]: in series [2], the “Difference in specific volume” value is listed as 2.61 mL/g and the Loose specific volume is listed as 5.50 mL/g. Further, in series [3], the Dense specific volume stood at 2.88 mL/g.
With `N[C@@H](CCC(=O)N[C@@H](CS)C(=O)NCC(=O)O)C(=O)O` [Comparative Example, reduced glutathione], in series [1], the “Average crystal thickness T” value came out at 5.5 μm. In addition, the “Difference in specific volume” value in series [2] is recorded as 1.48 mL/g. Further, in series [2], the Loose specific volume came to 3.42 mL/g. The Dense specific volume in series [3] was 1.95 mL/g. The Angle of repose in series [4] (After pulverization) is listed as 51.8 °; in series [4] (Before pulverization) it was 51.4 °. Moreover, the Angle of rupture came to 41.5 ° in series [5] (After pulverization) and 46.8 ° in series [5] (Before pulverization).
`N[C@@H](CCC(=O)N[C@@H](CS)C(=O)NCC(=O)O)C(=O)O` [Example 1, reduced glutathione]: the “Average crystal thickness T” value in series [1] is 17.0 μm. For the same molecule, in series [2], the “Difference in specific volume” value was determined as 0.62 mL/g and the Loose specific volume was 1.88 mL/g. Moreover, the Dense specific volume in series [3] stood at 1.26 mL/g.
For the molecule `N[C@@H](CCC(=O)N[C@@H](CS)C(=O)NCC(=O)O)C(=O)O` [Example 2, reduced glutathione], the “Average crystal thickness T” value in series [1] stood at 16.7 μm. Moreover, in series [2], the “Difference in specific volume” value stood at 0.71 mL/g and the Loose specific volume came to 2.00 mL/g. The same molecule registered a Dense specific volume in series [3] of 1.29 mL/g.
In the case of `N[C@@H](CCC(=O)N[C@@H](CS)C(=O)NCC(=O)O)C(=O)O` [Example 3, reduced glutathione], the “Average crystal thickness T” value in series [1] worked out at 16.7 μm. The “Difference in specific volume” value in series [2] was 0.71 mL/g. The same molecule returned a Loose specific volume in series [2] of 2.00 mL/g. In addition, the Dense specific volume in series [3] is 1.29 mL/g. In addition, the “loose specific volume during pulverization” value in series [6] (all pulverization times) is reported as “smaller”. Besides, in series [6] (FIG. 1), the “pulverization behaviour (speed of pulverization, convergence of specific volume)” value is “pulverized more promptly”. Further, the Angle of repose in series [4] (After pulverization) was determined as 37.4 °; in series [4] (Before pulverization), 42.4 °. In series [4] (from Table 3, before and after pulverization), the flowability result was “the flowability is high”. Besides, the Angle of rupture turned out to be 31.1 ° in series [5] (After pulverization) and 39.4 ° in series [5] (Before pulverization).

For the origin of these results see patent US10774109B2, “Crystal of reduced glutathione and method for producing same” (KYOWA HAKKO BIO CO., LTD., priority 2016, dated 2020).
